Source: US12435010B1, “4-iodopyrazole coordination compound and preparation method and use thereof” (Institute of Applied Ecology, Chinese Academy of Sciences, priority 2024, dated 2025)

Tests used:
nitrobacteria = test: nitrification inhibition activity in air-dry soil with urea; conditions: for Nitrification inhibition rate dN / Mass fraction of nitrate nitrogen in the sample solution ω1: 10.00 g air-dry soil, 0.10 g urea, 48 h; for Mass fraction of nitrate nitrogen in the sample solution ω1: control ω2=948.6
Method: 2. A method for determining nitrification inhibition activity is as follows. […] 4-iodopyrazole coordination compound prepared in Embodiment 1 were respectively weighed, and placed into 500 ml conical flasks respectively; 10.00 g of air-dry soil, 0.10 g of urea and 100 mL of phosphate buffer were added to each flask; the conical flasks were simultaneously place into a thermostatic culture oscillator (180 rpm) for oscillation for 48 h, and then the resulting solutions were filtered to determine mass fraction ω1 of nitrate nitrogen (including nitrite nitrogen) in the sample and the control sample solution respectively. Calculation of nitrification inhibition rate: the nitrification inhibition rate of binuclear ligands with different addition amounts was calculated, and the results are shown in Table 2. [formula] • where dN is nitrification inhibition rate (%); • ω1 is mass fraction of nitrate nitrogen (including nitrite nitrogen) in the sample; and • ω2 is mass fraction of nitrate nitrogen (including nitrite nitrogen) in the control sample, and ω2=948.6.

urease = urease (Canavalia ensiformis, UniProt P07374); conditions: read-out: IC50 of urease inhibition; urease 10 KU/L, preincubated 1 h at 37° C., phosphate buffer pH 6.8 with 500 mM urea; modified Karber method
Sequence of urease (P07374 whole entry, looked up): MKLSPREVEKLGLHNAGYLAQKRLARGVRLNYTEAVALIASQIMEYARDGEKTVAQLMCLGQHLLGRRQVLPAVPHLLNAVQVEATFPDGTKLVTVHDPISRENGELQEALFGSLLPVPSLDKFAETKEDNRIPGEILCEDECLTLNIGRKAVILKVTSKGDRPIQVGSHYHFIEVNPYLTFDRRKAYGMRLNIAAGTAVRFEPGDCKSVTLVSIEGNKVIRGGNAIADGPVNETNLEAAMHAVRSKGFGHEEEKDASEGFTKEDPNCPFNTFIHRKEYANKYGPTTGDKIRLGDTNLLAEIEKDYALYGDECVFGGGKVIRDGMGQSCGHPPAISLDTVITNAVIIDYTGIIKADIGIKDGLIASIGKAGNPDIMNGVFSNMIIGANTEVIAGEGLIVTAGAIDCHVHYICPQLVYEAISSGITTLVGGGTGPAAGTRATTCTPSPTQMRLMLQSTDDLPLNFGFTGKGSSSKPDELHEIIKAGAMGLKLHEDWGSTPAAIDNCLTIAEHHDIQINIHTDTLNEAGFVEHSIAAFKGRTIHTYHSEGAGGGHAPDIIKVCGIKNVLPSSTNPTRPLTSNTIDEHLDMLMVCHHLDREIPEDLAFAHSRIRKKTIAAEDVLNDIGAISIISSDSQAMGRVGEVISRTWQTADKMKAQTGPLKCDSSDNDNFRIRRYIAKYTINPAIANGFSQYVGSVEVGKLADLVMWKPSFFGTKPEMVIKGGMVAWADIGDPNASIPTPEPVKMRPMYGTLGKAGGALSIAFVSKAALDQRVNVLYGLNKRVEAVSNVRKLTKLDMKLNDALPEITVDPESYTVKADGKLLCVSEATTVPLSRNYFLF
Method: An endpoint of the testing was determined by the phenol red indicator, and the testing was stopped when the solution changed from pale yellow to red.

SMILES: Ic1cn[nH]c1.Ic1cn[nH]c1.[Cl][Cu][Cl] [copper chloride-linked 4-iodopyrazole coordination compound]
- nitrification inhibition rates (nitrobacteria; all addition amounts of Table 2): greater than 9%
- Nitrification inhibition rate dN (nitrobacteria; mass of compound 0.03 g): 9.16%
- Mass fraction of nitrate nitrogen in the sample solution ω1 (nitrobacteria; mass of compound 0.03 g): 861.7
- Nitrification inhibition rate dN (nitrobacteria; mass of compound 0.05 g): 9.79%
- Mass fraction of nitrate nitrogen in the sample solution ω1 (nitrobacteria; mass of compound 0.05 g): 855.8
- Nitrification inhibition rate dN (nitrobacteria; mass of compound 0.07 g): 11.09%
- Mass fraction of nitrate nitrogen in the sample solution ω1 (nitrobacteria; mass of compound 0.07 g): 843.4
- Nitrification inhibition rate dN (nitrobacteria; mass of compound 0.10 g): 15.57%
- Mass fraction of nitrate nitrogen in the sample solution ω1 (nitrobacteria; mass of compound 0.10 g): 800.9
- IC50 (urease): 2.58 ± 0.04 µM
